Experimental data: ChEMBL document CHEMBL3045943, “Novel N-aryl(alkaryl)-2-[(3-R-2-oxo-2H-[1,2,4]triazino[2,3-c]quinazoline-6-yl)thio]acetamides: synthesis, cytotoxicity, anticancer activity, COMPARE analysis and docking” (2013)

Columns and labels:
Type in all cases: functional
[1] = test system: DU-145; assay: Cytotoxicity against Homo sapiens (human) DU145 cells assessed as cell growth at 10 uM after 48 hr by SRB assay relative to control; conditions: DU-145, 48 h, read-out: Activity
[2] = test system: HCT-116; assay: Cytotoxicity against Homo sapiens (human) HCT116 cells assessed as cell growth at 10 uM after 48 hr by SRB assay relative to control; conditions: HCT-116, 48 h, read-out: Activity
[3] = test system: SF-295; assay: Cytotoxicity against Homo sapiens (human) SF295 cells assessed as cell growth at 10 uM after 48 hr by SRB assay relative to control; conditions: SF-295, 48 h, read-out: Activity
[4] = test system: 786-0; assay: Cytotoxicity against Homo sapiens (human) 786-0 cells assessed as cell growth at 10 uM after 48 hr by SRB assay relative to control; conditions: 786-0, 48 h, read-out: Activity
[5] = test system: K562; assay: Cytotoxicity against Homo sapiens (human) K562 cells assessed as cell growth at 10 uM after 48 hr by SRB assay relative to control; conditions: K562, 48 h, read-out: Activity
[6] = test system: IGROV-1; assay: Cytotoxicity against Homo sapiens (human) IGROV1 cells assessed as cell growth at 10 uM after 48 hr by SRB assay relative to control; conditions: IGROV-1, 48 h, read-out: Activity
[7] = test system: MDA-MB-435; assay: Cytotoxicity against Homo sapiens (human) MDA-MB-435 cells assessed as cell growth at 10 uM after 48 hr by SRB assay relative to control; conditions: MDA-MB-435, 48 h, read-out: Activity
[8] = test system: HOP-62; assay: Cytotoxicity against Homo sapiens (human) HOP62 cells after 48 hr by SRB assay; conditions: HOP-62, 48 h; for TGI: read-out: pTGI (converted)
[9] = test system: SR; assay: Cytotoxicity against Homo sapiens (human) SR cells assessed as cell growth at 10 uM after 48 hr by SRB assay relative to control; conditions: read-out: Activity
[10] = test system: Photobacterium leiognathi; assay: Growth inhibition of Photobacterium leiognathi Sh1 assessed as bio-luminescence at 0.025 mg/ml after 16 to 18 hr by chronic action test relative to control; set-up: scale not given: the % may be the effect or the level left
[11] = test system: EKVX; assay: Cytotoxicity against Homo sapiens (human) EKVX cells assessed as cell growth at 10 uM after 48 hr by SRB assay relative to control; conditions: read-out: Activity
[12] = test system: SNB-75; assay: Cytotoxicity against Homo sapiens (human) SNB75 cells after 48 hr by SRB assay; conditions: SNB-75, 48 h; for TGI: read-out: pTGI (converted)
[13] = test system: U-251; assay: Cytotoxicity against Homo sapiens (human) U251 cells after 48 hr by SRB assay; conditions: U-251, 48 h
[14] = test system: KM12; assay: Cytotoxicity against Homo sapiens (human) KM12 cells assessed as cell growth at 10 uM after 48 hr by SRB assay relative to control; conditions: KM12, 48 h, read-out: Activity
[15] = test system: SF-268; assay: Cytotoxicity against Homo sapiens (human) SF268 cells assessed as cell growth at 10 uM after 48 hr by SRB assay relative to control; conditions: SF-268, 48 h, read-out: Activity
[16] = test system: Photobacterium leiognathi; assay: Growth inhibition of Photobacterium leiognathi Sh1 assessed as bio-luminescence at 0.1 mg/ml after 10 min by acute action test relative to control; set-up: scale not given: the % may be the effect or the level left
[17] = test system: HL-60(TB); assay: Cytotoxicity against Homo sapiens (human) HL-60(TB) cells assessed as cell growth at 10 uM after 48 hr by SRB assay relative to control; conditions: HL-60, 48 h, read-out: Activity
[18] = test system: Photobacterium leiognathi; assay: Growth inhibition of Photobacterium leiognathi Sh1 assessed as bio-luminescence at 0.25 mg/ml after 10 min by acute action test relative to control; set-up: scale not given: the % may be the effect or the level left
[19] = test system: SW-620; assay: Cytotoxicity against Homo sapiens (human) SW620 cells assessed as cell growth at 10 uM after 48 hr by SRB assay relative to control; conditions: SW-620, 48 h, read-out: Activity
[20] = test system: A549; assay: Cytotoxicity against Homo sapiens (human) A549 cells assessed as cell growth at 10 uM after 48 hr by SRB assay relative to control; conditions: A549, 48 h, read-out: Activity
[21] = test system: RXF 393; assay: Cytotoxicity against Homo sapiens (human) RXF393 cells after 48 hr by SRB assay; conditions: RXF 393, 48 h; for TGI: read-out: pTGI (converted)
[22] = test system: CAKI-1; assay: Cytotoxicity against Homo sapiens (human) Caki1 cells assessed as cell growth at 10 uM after 48 hr by SRB assay relative to control; conditions: CAKI-1, 48 h, read-out: Activity
[23] = test system: Hs-578T; assay: Cytotoxicity against Homo sapiens (human) Hs 578T cells after 48 hr by SRB assay; conditions: for TGI: read-out: pTGI (converted)
[24] = test system: OVCAR-3; assay: Cytotoxicity against Homo sapiens (human) OVCAR3 cells assessed as cell growth at 10 uM after 48 hr by SRB assay relative to control; conditions: OVCAR-3, 48 h, read-out: Activity
[25] = test system: MOLT-4; assay: Cytotoxicity against Homo sapiens (human) MOLT4 cells assessed as cell growth at 10 uM after 48 hr by SRB assay relative to control; conditions: MOLT-4, 48 h, read-out: Activity
[26] = test system: LOX IMVI; assay: Cytotoxicity against Homo sapiens (human) LOXIMVI cells assessed as cell growth at 10 uM after 48 hr by SRB assay relative to control; conditions: read-out: Activity
[27] = test system: Photobacterium leiognathi; assay: Growth inhibition of Photobacterium leiognathi Sh1 assessed as bio-luminescence at 0.1 mg/ml after 16 to 18 hr by chronic action test relative to control; set-up: scale not given: the % may be the effect or the level left
[28] = test system: Photobacterium leiognathi; assay: Growth inhibition of Photobacterium leiognathi Sh1 assessed as bio-luminescence at 0.025 mg/ml after 10 min by acute action test relative to control; set-up: scale not given: the % may be the effect or the level left
[29] = test system: Photobacterium leiognathi; assay: Growth inhibition of Photobacterium leiognathi Sh1 assessed as bio-luminescence at 0.25 mg/ml after 16 to 18 hr by chronic action test relative to control; set-up: scale not given: the % may be the effect or the level left
[30] = test system: NCI-H460; assay: Cytotoxicity against Homo sapiens (human) NCI-H460 cells assessed as cell growth at 10 uM after 48 hr by SRB assay relative to control; conditions: NCI-H460, 48 h, read-out: Activity
[31] = test system: A549; assay: Cytotoxicity against Homo sapiens (human) A549 cells after 48 hr by SRB assay; conditions: A549, 48 h
[32] = test system: HOP-92; assay: Cytotoxicity against Homo sapiens (human) HOP92 cells assessed as cell growth at 10 uM after 48 hr by SRB assay relative to control; conditions: HOP-92, 48 h, read-out: Activity
[33] = test system: A498; assay: Cytotoxicity against Homo sapiens (human) A498 cells after 48 hr by SRB assay; conditions: A498, 48 h

Compound: COc1ccc(-c2nn3c(SCC(=O)Nc4ccccc4Cl)nc4ccccc4c3nc2=O)cc1
- growth at 10 µM [1]: -17.9%
- growth at 10 µM [2]: 12.2%
- growth at 10 µM [3]: 23.9%
- growth at 10 µM [4]: 32.9%
- growth at 10 µM [5]: 26.9%
- growth at 10 µM [6]: 38.4%
- growth at 10 µM [7]: 15.7%
- GI50 [8]: 2.88 µM
- LC50 [8]: 35.5 µM
- TGI [8]: 9.77 µM
- growth at 10 µM [9]: 37%
- Activity [10]: 54.5%
- growth at 10 µM [11]: 27.2%
- GI50 [12]: 2 µM
- LC50 [12]: 25.1 µM
- TGI [12]: 6.03 µM
- GI50 [13]: 1.78 µM
- LC50 [13]: 18.6 µM
- TGI ([13]; read-out: pTGI (converted)): 4.68 µM
- growth at 10 µM [14]: 34.8%
- growth at 10 µM [15]: 53.9%
- Activity [16]: 87.5%
- growth at 10 µM [17]: 38.6%
- Activity [18]: 75%
- growth at 10 µM [19]: 13.9%
- growth at 10 µM [20]: -29.6%
- GI50 [21]: 2.63 µM
- LC50 [21]: 39.8 µM
- TGI [21]: 7.76 µM
- growth at 10 µM [22]: 54.7%
- GI50 [23]: 1.95 µM
- LC50 [23]: > 100 µM
- TGI [23]: 6.76 µM
- growth at 10 µM [24]: 7.18%
- growth at 10 µM [25]: 36.3%
- growth at 10 µM [26]: 42.1%
- Activity [27]: 35.4%
- Activity [28]: 83.3%
- Activity [29]: 33.3%
- growth at 10 µM [30]: 24.1%

Compound: COc1ccccc1CNC(=O)CSc1nc2ccccc2c2nc(=O)c(-c3ccccc3)nn12
- GI50 [31]: 2.34 µM
- CC50 ([31]; read-out: pLC50 (the source's name) (converted)): > 100 µM
- TGI ([31]; read-out: pTGI): > 100 µM
- growth at 10 µM [1]: 0.48%
- growth at 10 µM [2]: 33.1%
- growth at 10 µM [32]: 26.2%
- growth at 10 µM [3]: 18.8%
- growth at 10 µM [4]: 35.3%
- growth at 10 µM [5]: 26.4%
- growth at 10 µM [6]: 18.8%
- growth at 10 µM [7]: 27.7%
- GI50 [8]: 2.34 µM
- LC50 [8]: 19.5 µM
- TGI [8]: 5.5 µM
- growth at 10 µM [9]: 42.1%
- Activity [10]: 150%
- growth at 10 µM [11]: 31.4%
- GI50 [12]: 2.24 µM
- LC50 [12]: 43.7 µM
- TGI [12]: 6.61 µM
- growth at 10 µM [14]: 43.3%
- growth at 10 µM [15]: 43.5%
- Activity [16]: 99.1%
- growth at 10 µM [17]: 41.9%
- Activity [18]: 122.6%
- growth at 10 µM [19]: 30.2%
- growth at 10 µM [20]: 39.7%
- GI50 [21]: 1.78 µM
- LC50 [21]: > 100 µM
- TGI [21]: > 100 µM
- growth at 10 µM [22]: -13.6%
- GI50 [23]: 3.09 µM
- LC50 [23]: > 100 µM
- TGI [23]: 9.12 µM
- growth at 10 µM [24]: 21.3%
- growth at 10 µM [25]: 52.3%
- growth at 10 µM [26]: 27.7%
- Activity [27]: 80%
- Activity [28]: 111.5%
- Activity [29]: 73.3%
- growth at 10 µM [30]: 8.38%
- GI50 [33]: 1.17 µM
- LC50 [33]: > 100 µM
- TGI ([33]; read-out: pTGI (converted)): 4.07 µM
